Data on three compounds can be found in publication PMC8957926, “Identification of a Novel Chromate and Selenite Reductase FesR in Alishewanella sp. WH16-1” (Frontiers in Microbiology, 2022).

In data set [1] the target is T1, FesR (Alishewanella sp. WH16-1, UniProt A0A0T5PLD3, R385A).
T1 construct: gene AAY72_06850; Full-length, no signal peptide predicted, GST-tagged (pGEX-6p-1), eluted with glutathione, expressed in E. coli BL21(DE3); predicted 127 kDa with tag; FAD domain 16-520, two 4Fe-4S clusters 525-625
T1 sequence (A0A0T5PLD3 1-919 R385A): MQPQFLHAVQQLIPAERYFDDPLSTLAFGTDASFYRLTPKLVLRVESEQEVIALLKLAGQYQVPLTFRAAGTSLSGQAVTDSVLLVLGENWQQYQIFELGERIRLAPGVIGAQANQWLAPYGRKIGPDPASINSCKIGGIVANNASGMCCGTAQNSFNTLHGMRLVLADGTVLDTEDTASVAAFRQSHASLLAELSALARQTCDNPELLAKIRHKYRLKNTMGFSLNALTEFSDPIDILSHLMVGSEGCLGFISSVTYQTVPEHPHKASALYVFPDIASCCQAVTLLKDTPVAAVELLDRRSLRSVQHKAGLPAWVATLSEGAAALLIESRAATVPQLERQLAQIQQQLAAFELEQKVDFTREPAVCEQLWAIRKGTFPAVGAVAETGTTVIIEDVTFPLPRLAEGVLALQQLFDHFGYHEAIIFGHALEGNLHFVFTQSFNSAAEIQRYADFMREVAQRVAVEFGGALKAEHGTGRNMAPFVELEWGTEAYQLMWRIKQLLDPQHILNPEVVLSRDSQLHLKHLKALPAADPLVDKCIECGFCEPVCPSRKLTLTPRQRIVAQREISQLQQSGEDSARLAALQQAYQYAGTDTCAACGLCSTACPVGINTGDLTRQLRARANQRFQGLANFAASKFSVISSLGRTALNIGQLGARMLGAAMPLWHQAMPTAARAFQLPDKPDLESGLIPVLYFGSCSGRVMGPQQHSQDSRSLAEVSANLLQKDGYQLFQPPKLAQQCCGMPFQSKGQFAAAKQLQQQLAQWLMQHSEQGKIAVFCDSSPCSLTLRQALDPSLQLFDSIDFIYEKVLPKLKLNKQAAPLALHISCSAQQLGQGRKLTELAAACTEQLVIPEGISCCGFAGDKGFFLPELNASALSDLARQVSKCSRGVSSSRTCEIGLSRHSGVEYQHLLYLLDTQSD
The data set can be described thus: enhancement of Cr(VI) and Se(IV) reduction by added FAD. Type of data set: biochemical. To be noted: […] FAD, […] NADPH, […] K2CrO4 or Na2SeO3, optimum pH and temperature (pH […] °C).

The test system of the next data set is O=[Se](O)O. Description: purified protein. To be noted: 1 mmol/L NADPH, pH 7.0, 50 °C, Tris-HCl, 10 min, no added FAD.
Data set [2] deals with T2, FesR (Alishewanella sp. WH16-1, UniProt A0A0T5PLD3).
T2 construct: Full-length, no signal peptide predicted, GST-tagged (pGEX-6p-1), eluted with glutathione, expressed in E. coli BL21(DE3); predicted 127 kDa with tag; FAD domain 16-520, two 4Fe-4S clusters 525-625
Description: residual Cr(VI) by diphenylcarbazide colorimetry. To be noted: 1 mmol/L NADPH, pH 7.0, 50 °C, Tris-HCl, 10 min, no added FAD. It counts as biochemical.

Turning to `Cc1cc2nc3c(=O)[nH]c(=O)nc-3n(C[C@H](O)[C@H](O)[C@H](O)COP(=O)(O)OP(=O)(O)OC[C@H]3O[C@@H](n4cnc5c(N)ncnc54)[C@H](O)[C@@H]3O)c2cc1C` [FAD], at FesR [1], the “enhancement of Cr(VI) and Se(IV) reduction by added FAD” value is given as “FAD couldn’t enhance the enzyme activity of FesR when the predicted FAD-binding residue Arg385 was mutated”.
The Km is the substrate concentration at which the rate is half of its maximum. Regarding FesR (Alishewanella sp. WH16-1), the Km in the data set on O=[Se](O)O is 1164.0 ± 89.4 µM.
For `[O]=[Cr](=[O])([OH])[OH]` [Cr(VI)], the Km on FesR [2] turned out to be 1680 ± 126 µM.
